From ChEMBL document CHEMBL5226369, “Tetracyclic Steroids Bearing a Bicyclo[4.4.1] Ring System as Potent Antiosteoporosis Agents from the Deep-Sea-Derived Fungus Rhizopus sp. W23” (J Nat Prod, 2023)

Experiments:
Assay type in all cases: functional, cell-based
A-431 = assay: Antiproliferative activity against human A-431 cells by MTT assay
A549 = assay: Antiproliferative activity against human A549 cells by MTT assay
MDA-MB-231 = assay: Antiproliferative activity against human MDA-MB-231 cells by MTT assay
MCF7 = assay: Antiproliferative activity against human MCF7 cells by MTT assay
PANC-1 = assay: Antiproliferative activity against human PANC-1 cells by MTT assay
HepG2 = assay: Antiproliferative activity against human HepG2 cells by MTT assay
HCT-116 = assay: Antiproliferative activity against human HCT-116 cells by MTT assay
NCI-H460 = assay: Antiproliferative activity against human NCI-H460 cells by MTT assay
NCI-H1299 = assay: Antiproliferative activity against human NCI-H1299 cells by MTT assay
[1] = Antiproliferative activity against human QGY-7701 cells by MTT assay; settings: QGY7701
BGC-823 = assay: Antiproliferative activity against human BGC-823 cells by MTT assay
[2] = Antiproliferative activity against human SKGT4 cells by MTT assay
A-375 = assay: Antiproliferative activity against human A-375 cells by MTT assay
U2OS = assay: Antiproliferative activity against human U2OS cells by MTT assay
HL-60 = assay: Antiproliferative activity against human HL-60 cells by MTT assay
K562 = assay: Antiproliferative activity against human K562 cells by MTT assay
KYSE-450 = assay: Antiproliferative activity against human KYSE-450 cells by MTT assay
PC-3 = assay: Antiproliferative activity against human PC-3 cells by MTT assay

Measured: IC50

CC(=O)OC(/C=C(\C)[C@H]1CC[C@H]2C3=CC(=O)[C@H]4CC(=CC[C@H](O)C4)[C@H]3CC[C@]12C)C(C)O (stereo partly drawn)
> 20 µM: all assays above

CC(=O)/C=C/[C@](C)(O)[C@H]1CC[C@H]2C3=CC(=O)[C@H]4CC(=CC[C@H](O)C4)[C@H]3CC[C@@]21C
> 20 µM: all assays above

C[C@]12CC[C@@H]3C4=CC[C@H](O)C[C@H](C4)C(=O)C=C3[C@@H]1CC[C@@H]2[C@](C)(O)CC(=O)O
> 20 µM: all assays above

CC(=O)/C=C/[C@@](C)(O)[C@H]1CC[C@H]2C3=CC(=O)[C@H]4CC(=CC[C@H](O)C4)[C@H]3CC[C@@]21C
> 20 µM: all assays above

CO[C@H](/C=C(\C)[C@H]1CC[C@H]2C3=CC(=O)[C@H]4CC(=CC[C@H](O)C4)[C@H]3CC[C@]12C)[C@H](C)O
> 20 µM: all assays above

C/C=C/[C@@H](O)[C@](C)(O)[C@H]1CC[C@H]2C3=CC(=O)[C@H]4CC(=CC[C@H](O)C4)[C@H]3CC[C@]12C
> 20 µM: all assays above

C/C(=C\[C@H](O)[C@H](C)O)[C@H]1CC[C@H]2C3=CC(=O)[C@H]4CC(=CC[C@H](O)C4)[C@H]3CC[C@]12C [NEOCYCLOCITRINOL B]
> 20 µM: all assays above

C/C(=C\C(=O)O)[C@H]1CC[C@H]2C3=CC(=O)[C@H]4CC(=CC[C@H](O)C4)[C@H]3CC[C@]12C
> 20 µM: all assays above

C/C=C/[C@H](OC(C)=O)[C@](C)(O)[C@H]1CC[C@H]2C3=CC(=O)[C@H]4CC(=CC[C@H](O)C4)[C@H]3CC[C@]12C
> 20 µM: all assays above

C/C(=C\C(=O)C(C)O)[C@H]1CC[C@H]2C3=CC(=O)[C@H]4CC(=CC[C@H](O)C4)[C@H]3CC[C@]12C (stereo partly drawn)
> 20 µM: all assays above

CC(=O)OC(C)C(O)/C=C(\C)[C@H]1CC[C@H]2C3=CC(=O)[C@H]4CC(=CC[C@H](O)C4)[C@H]3CC[C@]12C (stereo partly drawn)
> 20 µM: all assays above
